Source: ChEMBL document CHEMBL6083210, “Exploring apoptotic induction of malabaricone A in triple-negative breast cancer cells: an acylphenol phyto-entity isolated from the fruit rind of Myristica malabarica Lam” (RSC Med Chem, 2024)
Calls of active or inactive are those of the source. The rule behind the calls is not given here.

Tests used:
MDA-MB-231 [1] = test: Induction of apoptosis in human MDA-MB-231 cells assessed as late apoptotic cells at 6 uM incubated for 24 hrs by FITC annexin V staining based analysis (reference value: 7.3%); format: functional
MDA-MB-231 [2] = test: Induction of cell cycle arrest in human MDA-MB-231 cells assessed as accumulation of cells at Sub G0 phase at 8 uM incubated for 24 hrs by PI staining based flow cytometry analysis (reference value: 5.3%); format: functional
MDA-MB-231 [3] = test: Induction of apoptosis in human MDA-MB-231 cells assessed as early apoptotic cells at 6 uM incubated for 24 hrs by FITC annexin V staining based analysis (reference value: 1.4%); format: functional
MDA-MB-231 [4] = test: Downregulation of livin protein level in human MDA-MB-231 cells at 8 uM measured after 24 hrs; format: functional, cell-based
MDA-MB-231 [5] = test: Downregulation of XIAP protein level in human MDA-MB-231 cells at 8 uM measured after 24 hrs; format: functional, cell-based
MDA-MB-231 [6] = test: Upregulation of Bax protein level in human MDA-MB-231 cells at 8 uM measured after 24 hrs; format: functional, cell-based
MDA-MB-231 [7] = test: Upregulation of TNF-R1 protein level in human MDA-MB-231 cells at 8 uM measured after 24 hrs; format: functional, cell-based
MDA-MB-231 [8] = test: Induction of apoptosis in human MDA-MB-231 cells assessed as late apoptotic cells at 10 uM incubated for 24 hrs by FITC annexin V staining based analysis (reference value: 7.3%); format: functional
MDA-MB-231 [9] = test: Induction of morphological changes in human MDA-MB-231 cells assessed as appearance of spherical shaped cell at 6 to 10 uM measured 24 hrs by EtBr-AO Live dead Assay; format: functional, cell-based; conditions: dose 6-10 µM
MDA-MB-231 [10] = test: Upregulation of HTRA protein level in human MDA-MB-231 cells at 8 uM measured after 24 hrs; format: functional, cell-based
MDA-MB-231 [11] = test: Downregulation of cyclin A2 level in human MDA-MB-231 cells at 6 to 10 uM by Western blot analysis; format: functional, cell-based; conditions: dose 6-10 µM
MDA-MB-231 [12] = test: Induction of cell cycle arrest in human MDA-MB-231 cells assessed as accumulation of cells at S phase at 8 uM incubated for 24 hrs by PI staining based flow cytometry analysis (reference value: 12.0%); format: functional
MDA-MB-231 [13] = test: Induction of apoptosis in human MDA-MB-231 cells assessed as viable cells at 8 uM incubated for 24 hrs by FITC annexin V staining based analysis (reference value: 90.5%); format: functional; conditions: read-out: Activity
MDA-MB-231 [14] = test: Induction of apoptosis in human MDA-MB-231 cells assessed as increase in green fluorescence incubated for 24 hrs by acridine orange and ethidium bromide dual staining based analysis; format: functional, cell-based; conditions: dose 6-10 µM
MDA-MB-231 [15] = test: Induction of apoptosis in human MDA-MB-231 cells assessed as dead cells by measuring pink coloration at 6 to 10 uM incubated for 24 hrs by APO staining based analysis; format: functional, cell-based; conditions: dose 6-10 µM
MDA-MB-231 [16] = test: Induction of morphological changes in human MDA-MB-231 cells assessed as membrane breakage at 6 to 10 uM measured 24 hrs by EtBr-AO Live dead Assay; format: functional, cell-based; conditions: dose 6-10 µM
MDA-MB-231 [17] = test: Downregulation of Cdc25c level in human MDA-MB-231 cells at 6 to 10 uM by Western blot analysis; format: functional, cell-based; conditions: dose 6-10 µM
MDA-MB-231 [18] = test: Upregulation of Smac protein level in human MDA-MB-231 cells at 8 uM measured after 24 hrs; format: functional, cell-based
MDA-MB-231 [19] = test: Induction of apoptosis in human MDA-MB-231 cells assessed as necrotic cells at 6 uM incubated for 24 hrs by FITC annexin V staining based analysis (reference value: 0.8%); format: functional
MDA-MB-231 [20] = test: Induction of apoptosis in human MDA-MB-231 cells assessed as late apoptotic cells at 8 uM incubated for 24 hrs by FITC annexin V staining based analysis (reference value: 7.3%); format: functional
MDA-MB-231 [21] = test: Induction of morphological changes in human MDA-MB-231 cells assessed as leakage of intracellular components at 6 to 10 uM measured 24 hrs by EtBr-AO Live dead Assay; format: functional, cell-based; conditions: dose 6-10 µM
MDA-MB-231 [22] = test: Upregulation of Bid protein level in human MDA-MB-231 cells at 8 uM measured after 24 hrs; format: functional, cell-based
MDA-MB-231 [23] = test: Upregulation of p53 protein level in human MDA-MB-231 cells at 8 uM measured after 24 hrs; format: functional, cell-based
MDA-MB-231 [24] = test: Induction of apoptosis in human MDA-MB-231 cells assessed as fold increase in caspase 9 level at 8 uM by fluorometric assay; format: functional
MDA-MB-231 [25] = test: Induction of cell cycle arrest in human MDA-MB-231 cells assessed as accumulation of cells at S phase at 6 uM incubated for 24 hrs by PI staining based flow cytometry analysis (reference value: 12.0%); format: functional
MDA-MB-231 [26] = test: Downregulation of cIAP-2 protein level in human MDA-MB-231 cells at 8 uM measured after 24 hrs; format: functional, cell-based
MDA-MB-231 [27] = test: Induction of cell cycle arrest in human MDA-MB-231 cells assessed as accumulation of cells at Sub G0 phase at 6 uM incubated for 24 hrs by PI staining based flow cytometry analysis (reference value: 5.3%); format: functional
MDA-MB-231 [28] = test: Antiproliferative activity against human MDA-MB-231 cells assessed as reduction in cell viability measured after 12 to 48 hrs by MTT assay; format: functional, cell-based; conditions: dose 1-50 µM, time 12-48 hrs

For `O=C(CCCCCCCCc1ccccc1)c1c(O)cccc1O` [MALABARICONE A], the Activity (MDA-MB-231 [1]) was 20.4%, the Activity (MDA-MB-231 [2]) was 59.7% and the Activity (MDA-MB-231 [3]) was 7.3%. The Activity (MDA-MB-231 [4]) was “Active”, the Activity (MDA-MB-231 [5]) was “Active” and the Activity (MDA-MB-231 [6]) was “Active”. The Activity (MDA-MB-231 [7]) was “Active”, the Activity (MDA-MB-231 [8]) was 50.65% and the Activity (MDA-MB-231 [9]) was “Active”. The Activity (MDA-MB-231 [10]) was “Active”, the Activity (MDA-MB-231 [11]) was “Active” and the Activity (MDA-MB-231 [12]) was 9.1%. The viability at 8 µM (MDA-MB-231 [13]) was 50.2%, the Activity (MDA-MB-231 [14]) was “Dose-dependent-effect” and the Activity (MDA-MB-231 [15]) was “Active”. The Activity (MDA-MB-231 [16]) was “Active”, the Activity (MDA-MB-231 [17]) was “Active” and the Activity (MDA-MB-231 [18]) was “Active”. The Activity (MDA-MB-231 [19]) was 3.85%, the Activity (MDA-MB-231 [20]) was 35.25% and the Activity (MDA-MB-231 [21]) was “Active”. The Activity (MDA-MB-231 [22]) was “Active”, the Activity (MDA-MB-231 [23]) was “Active” and the “fold change (FC)” value (MDA-MB-231 [24]) was 3.1. The Activity (MDA-MB-231 [25]) was 9.7%, the Activity (MDA-MB-231 [26]) was “Active” and the Activity (MDA-MB-231 [27]) was 48.7%. For the same compound, the Activity (MDA-MB-231 [28]) was “Dose-dependent-effect”.
